Data published in ChEMBL document CHEMBL3400114, “The design, synthesis and biological evaluation of conformationally restricted 4-substituted-2,6-dimethylfuro[2,3-d]pyrimidines as multi-targeted receptor tyrosine kinase and microtubule inhibitors as potential antitumor agents” (Bioorg Med Chem, 2015).

Columns and labels:
[1] = test system: A-431; test: Antiproliferative activity against human A431 cells after 48 hrs by sulforhodamine B assay; assay type: functional, cell-based; conditions: A-431, 48 h
[2] = Induction of microtubule depolymerization in rat A10 cells after 18 hrs by indirect immunofluorescence assay; assay type: cell-based
[3] = biological target: Tubulin (Bos taurus, UniProt Q6B856+Q862L2+Q862F3); test: Inhibition of bovine brain tubulin assembly
[4] = Antiangiogenic activity in VEGF-165 and bFGF-stimulated chicken embryo chorioallantoic membrane assessed as inhibition of blood vessel formation after 40 hrs by microscopy; assay type: functional, tissue-based, Gallus gallus

Work on COc1ccc(N(C)c2nc(C)nc3oc(C)cc23)cc1OC yielded an IC50 [1] of 9.7 nM.

For COc1ccc(N(C)c2nc(C)nc3oc(C)cc23)cc1, the EC50 [2] was 103 nM and the IC50 [3] was 2400 nM.

In the case of Cc1nc(N(C)c2ccc3c(c2)OCO3)c2cc(C)oc2n1, the IC50 [1] is reported as 48.9 nM, the IC50 [4] is reported as 38200 nM and the EC50 [2] is reported as > 10000 nM.
